According to patent US6015805A, “17β-nitro-11β-arylisteroids and their derivatives having agonist or antagonist hormonal properties” (Research Triangle Research North Carolina, priority 1999, dated 2000):

Legend:
progestin receptor (rPR) = target: T1, progestin receptor (rPR) (Oryctolagus cuniculus, UniProt P06186); assay: Receptor binding (rabbit), progestin receptor; details: for Relative Binding Affinity, rPR, Relative Affinity (Progesterone): relative to progesterone = 100, rabbit progestin receptor; for Ratio PR/GR: ratio of rPR to rGR relative affinities
T1 construct: hormone receptors for progestins and glucocorticoids from rabbits; from tissue; host or cells: rabbit
T1 sequence (P06186 1-930): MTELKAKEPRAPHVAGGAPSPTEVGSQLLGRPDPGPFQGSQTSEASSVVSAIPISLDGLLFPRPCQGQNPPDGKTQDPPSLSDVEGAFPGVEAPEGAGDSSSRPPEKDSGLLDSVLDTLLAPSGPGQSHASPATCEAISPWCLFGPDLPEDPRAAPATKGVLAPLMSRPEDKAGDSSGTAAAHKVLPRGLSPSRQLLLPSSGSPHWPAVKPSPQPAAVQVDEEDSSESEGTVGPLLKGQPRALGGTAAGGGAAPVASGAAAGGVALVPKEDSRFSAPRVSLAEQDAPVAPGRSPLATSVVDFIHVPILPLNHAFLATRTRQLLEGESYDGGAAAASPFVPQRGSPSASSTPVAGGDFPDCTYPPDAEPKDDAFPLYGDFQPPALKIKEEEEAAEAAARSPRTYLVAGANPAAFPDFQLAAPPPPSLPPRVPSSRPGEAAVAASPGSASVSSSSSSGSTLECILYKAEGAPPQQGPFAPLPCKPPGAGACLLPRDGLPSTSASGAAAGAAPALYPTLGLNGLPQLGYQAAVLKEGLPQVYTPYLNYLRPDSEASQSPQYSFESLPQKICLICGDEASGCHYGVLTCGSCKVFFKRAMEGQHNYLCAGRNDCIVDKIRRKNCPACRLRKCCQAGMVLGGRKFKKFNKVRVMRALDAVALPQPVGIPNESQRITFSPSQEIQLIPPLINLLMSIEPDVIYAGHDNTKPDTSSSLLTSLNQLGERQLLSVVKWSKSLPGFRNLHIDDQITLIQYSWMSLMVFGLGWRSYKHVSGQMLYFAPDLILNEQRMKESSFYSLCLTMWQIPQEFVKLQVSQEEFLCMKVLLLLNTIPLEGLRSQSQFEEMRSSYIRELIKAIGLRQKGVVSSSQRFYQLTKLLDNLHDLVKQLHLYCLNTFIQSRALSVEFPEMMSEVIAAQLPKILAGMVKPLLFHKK

[1] = tested on: estrogen-primed immature female rabbits; assay: Anti-Clauberg assay (oral test compound with subcutaneous progesterone); type: in vivo, rabbit; details: given orally together with subcutaneous progesterone; McPhail Index
[2] = target: T2, glucocorticoid receptor (rGR) (Oryctolagus cuniculus, UniProt P59667); assay: Receptor binding (rabbit), glucocorticoid receptor; details: relative to dexamethasone = 100
T2 construct: the source of the glucocorticoid receptor was the thymus of the estrogen-primed immature female rabbit; from tissue; host or cells: thymus of the estrogen-primed immature female rabbit
T2 sequence (P59667 1-772): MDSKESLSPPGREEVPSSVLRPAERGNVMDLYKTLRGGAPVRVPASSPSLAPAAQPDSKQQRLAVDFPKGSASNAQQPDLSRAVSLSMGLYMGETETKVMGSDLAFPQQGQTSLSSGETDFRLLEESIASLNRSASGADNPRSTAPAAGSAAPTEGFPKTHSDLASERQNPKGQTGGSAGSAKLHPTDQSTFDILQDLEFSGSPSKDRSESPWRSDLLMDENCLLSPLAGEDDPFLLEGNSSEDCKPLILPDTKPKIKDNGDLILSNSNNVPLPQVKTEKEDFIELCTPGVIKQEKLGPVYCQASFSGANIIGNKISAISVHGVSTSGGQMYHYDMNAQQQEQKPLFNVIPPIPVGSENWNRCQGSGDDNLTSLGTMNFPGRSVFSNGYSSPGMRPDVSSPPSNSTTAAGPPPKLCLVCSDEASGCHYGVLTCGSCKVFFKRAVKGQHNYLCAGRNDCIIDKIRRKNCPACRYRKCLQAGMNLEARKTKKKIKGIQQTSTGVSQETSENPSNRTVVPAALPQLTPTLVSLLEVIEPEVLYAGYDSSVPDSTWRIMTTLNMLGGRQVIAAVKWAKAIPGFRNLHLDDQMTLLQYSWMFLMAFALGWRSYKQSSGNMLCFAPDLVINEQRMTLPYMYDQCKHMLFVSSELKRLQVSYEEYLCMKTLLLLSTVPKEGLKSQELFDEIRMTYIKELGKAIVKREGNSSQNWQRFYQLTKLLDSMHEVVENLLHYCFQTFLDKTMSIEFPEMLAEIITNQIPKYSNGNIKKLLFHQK
Experimental: (§1) The affinity of the compounds for hormone receptors for progestins and glucocorticoids from rabbits was determined by standard procedures similar to those that have been described in C. E. Cook, et al., Human Reproduction, Volume 9, supplement 1, pp. 32-39 (1994). However, the source of the glucocorticoid receptor was the thymus of the estrogen-primed immature female rabbit. The affinity of the compounds for the human progesterone hormone receptor was determined by standard procedures similar to those that have been described in Horwitz, et al., Cell, 28: 633-42 (1982) and Mockus, et al., Endocrinology, 110: 1564-71 (1982). The receptor was obtained in cytosol from human T-47D breast cells and [^3 H]-R5020 was used as the radioligand. T47D cells (1 billion/mL) were homogenized in TEDG buffer (10 mM Tris, 1.5 mM EDTA, 1 mM dithiothreitol, 1 mM sodium molybdate, and 10% glycerol) using a Dounce pestle A, and the homogenate was centrifuged at 34,000×g for 1 hour. The supernatant was stored at -80° C. An aliquot of receptor preparation was combined with test compound, 0.4 nM [^3 H]-R5020, and TEDG buffer to a final volume of 150 ,μL and incubated for 4 hours at 4° C. in microtiter plates. At the end of incubation 40 μL 40% polyethylene glycol and 15 μL 1% human gamma globulin was added to the incubate and the contents of each well were harvested onto double thick B filter mats (Wallac LKB) using a TomTec harvester. A film of Meltilux scintillant wax was applied to the dried filter mats and the mats were counted in a scintillation counter to determine inhibition of [^3 H]-R5020 binding. Data are expressed as lC50 values, i.e., the concentration of compound that inhibits radioligand binding by 50%.

rabbits [3] = assay: Anti-McGinty assay (antiprogestational activity, test compound plus progesterone); type: in vivo, rabbit; design: key to McPhail Index, Anti-McGinty Assay, Standard / McPhail Index, Anti-McGinty Assay (Antagonist): McPhail scoring scale for progestational endometrial response; details: for McPhail Index, Anti-McGinty Assay (Antagonist): plus progesterone
Experimental: (§2) Progestational activity and antiprogestational activity were determined in rabbits by means of the McGinty test (test compound alone, procedure of McGinty et al., Endocrinology, 24: 829-832 (1939)) or anti-McGinty test (test compound plus progesterone, procedure of Tamara et al., Jpn. J. Fertil Steril 24: 48-81 (1979)). Results were scored according to McPhail (McPhail, J Physiol., 83: 146 (1934)). These are standard procedures known to those skilled in the art. The results of these assays are shown in Tables 4 (agonist activity) and 5 (antagonist activity). […] Physiol, 83: 146 (1934)).

[4] = target: T3, human progesterone hormone receptor (hPR) (Homo sapiens, UniProt P06401); assay: Receptor binding (human), inhibition of [^3 H]-R5020 binding; details: cytosol from human T-47D cells; 0.4 nM [^3 H]-R5020; 4 hours at 4° C.
T3 construct: The receptor was obtained in cytosol from human T-47D breast cells; endogenous in cells; host or cells: T-47D human breast cells (cytosol)
T3 sequence (P06401 1-933): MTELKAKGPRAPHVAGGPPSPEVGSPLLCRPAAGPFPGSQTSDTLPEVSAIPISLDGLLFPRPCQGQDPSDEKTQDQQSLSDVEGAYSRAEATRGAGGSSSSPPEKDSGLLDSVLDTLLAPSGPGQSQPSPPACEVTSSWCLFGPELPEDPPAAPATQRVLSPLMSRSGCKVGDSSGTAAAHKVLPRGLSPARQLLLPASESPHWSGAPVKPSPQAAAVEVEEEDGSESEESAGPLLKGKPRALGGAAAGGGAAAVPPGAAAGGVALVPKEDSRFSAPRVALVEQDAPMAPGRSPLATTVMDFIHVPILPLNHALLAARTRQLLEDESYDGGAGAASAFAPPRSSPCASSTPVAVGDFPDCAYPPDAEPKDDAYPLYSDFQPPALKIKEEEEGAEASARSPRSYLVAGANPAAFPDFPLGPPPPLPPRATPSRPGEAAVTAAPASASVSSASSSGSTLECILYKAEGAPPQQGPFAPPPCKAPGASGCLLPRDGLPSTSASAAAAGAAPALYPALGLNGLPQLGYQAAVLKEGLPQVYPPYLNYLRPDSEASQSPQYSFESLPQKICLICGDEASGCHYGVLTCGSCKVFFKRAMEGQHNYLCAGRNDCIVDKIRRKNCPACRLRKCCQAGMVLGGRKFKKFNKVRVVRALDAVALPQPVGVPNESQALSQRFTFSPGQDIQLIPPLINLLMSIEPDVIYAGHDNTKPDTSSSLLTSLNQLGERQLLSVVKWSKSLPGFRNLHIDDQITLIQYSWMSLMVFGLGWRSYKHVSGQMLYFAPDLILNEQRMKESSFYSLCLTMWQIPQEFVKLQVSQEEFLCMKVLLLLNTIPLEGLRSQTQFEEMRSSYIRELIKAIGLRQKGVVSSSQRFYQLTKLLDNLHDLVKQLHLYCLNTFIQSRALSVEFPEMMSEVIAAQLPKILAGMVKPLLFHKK
Experimental: as §1

rabbits [5] = assay: McGinty assay (progestational activity, test compound alone); type: in vivo, rabbit; design: key: McPhail scoring scale for progestational endometrial response
Experimental: as §2

glucocorticoid receptor = details: in words; cited from earlier work

Compound | Relative Binding Affinity, rPR, Relative Affinity (Progesterone) (progestin receptor (rPR)) | Relative Binding Affinity, rGR, Relative Affinity (Dexamethasone) [2] | Ratio PR/GR (progestin receptor (rPR)) | also measured
CC(=O)c1ccc(C2CC3(C)C(CCC34CCC(C)=[N+]4[O-])C3CCC4=CC(=O)CCC4=C23)cc1 (stereo not drawn) [II 4-CH3 CO H O H -- CH3, 11β-(4-Acetylphenyl)-3',4'-dihydro-5'-methyl-1'-oxo-spiro[estra-4,9-dien-17β,2'(2'H)-pyrrole]-3-one] | 21 |  |  | 
CSc1ccc([C@H]2C[C@@]3(C)[C@@H](CC[C@]3(C=CCO)[N+](=O)[O-])[C@@H]3CCC4=CC(=O)CCC4=C32)cc1 [I 4-MeS H O H CH=CHCH2 OH] | 32 |  |  | 
CC#C[C@]1([N+](=O)[O-])CC[C@H]2[C@@H]3CCC4=CC(=O)CCC4=C3[C@@H](c3ccc(N(C)C)cc3)C[C@@]21C [I 4-Me2 N H O H --CC--CH3, 11β-[4-(N,N-Dimethylamino)phenyl]-17β-nitro-17α-(1-propynyl)estra-4,9-dien-3-one] | 55 | 36 | 1.5 | antiprogestational activity in the anti-Clauberg assay [1]: potent antiprogestin
CSc1ccc([C@H]2C[C@@]3(C)[C@@H](CC[C@]3(CCCO)[N+](=O)[O-])[C@@H]3CCC4=CC(=O)CCC4=C32)cc1 [I 4-MeS H O H --(CH2)3 OH, 17α-(3-Hydroxypropyl)-11β-[4-(methylthio)phenyl]-17β-nitroestra-4,9-dien-3-one] | 61 | 3 | 20.3 | 
CN(C)c1ccc([C@H]2C[C@@]3(C)[C@@H](CC[C@@]34CCC=[N+]4[O-])[C@@H]3CCC4=CC(=O)CCC4=C32)cc1 [II 4-Me2 N H O H -- H, 11β-[4-(N,N-Dimethylamino)phenyl]-3',4'-dihydro-1'-oxo-spiro[estra-4,9-dien-17β,2'(2'H)-pyrrole]-3-one] |  |  |  | McPhail Index, Anti-McGinty Assay (Antagonist) (rabbits [3]; dose 0.3 micrograms): 2.0 ± 0.11; McPhail Index, Anti-McGinty Assay (Antagonist) (rabbits [3]; dose 3 micrograms): 1.83 ± 0.2; McPhail Index, Anti-McGinty Assay (Antagonist) (rabbits [3]; dose 30 micrograms): 0.23 ± 0.23; IC50 [4]: 18 nM; McPhail Index, McGinty Assay (Agonist) (rabbits [5]; dose 0.3 micrograms): 0 ± 0; McPhail Index, McGinty Assay (Agonist) (rabbits [5]; dose 3 micrograms): 0 ± 0; McPhail Index, McGinty Assay (Agonist) (rabbits [5]; dose 30 micrograms): 0 ± 0
CC#C[C@]1(O)CC[C@H]2[C@@H]3CCC4=CC(=O)CCC4=C3[C@@H](c3ccc(N(C)C)cc3)C[C@@]21C [mifepristone] |  |  |  | glucocorticoid or antiglucocorticoid activity as side-effect (glucocorticoid receptor): significant side-effect
CC(=O)[C@H]1CC[C@H]2[C@@H]3CCC4=CC(=O)CC[C@]4(C)[C@H]3CC[C@]12C [Progesterone, reference compound] |  |  |  | McPhail Index, Anti-McGinty Assay, Standard (rabbits [3]; standard, dose not given): 2.45 ± 0.14; McPhail Index, McGinty Assay, Standard (rabbits [5]; standard, dose not given): 2.45 ± 0.14
CN(C)c1ccc([C@H]2C[C@@]3(C)[C@@H](CC[C@]3(/C=C/CO)[N+](=O)[O-])[C@@H]3CCC4=CC(=O)CCC4=C32)cc1 [I 4-Me2 N H O H CH=CHCH2 OH, 11β-[4-(N,N-Dimethylamino)phenyl]-17α-[(E)-1-(3-hydroxy)propenyl]-17β-nitroestra-4,9-dien-3-one] | 56 | 16 | 3.5 | 
C[S+]([O-])c1ccc([C@H]2C[C@@]3(C)[C@@H](CC[C@]3(CCCO)[N+](=O)[O-])[C@@H]3CCC4=CC(=O)CCC4=C32)cc1 (stereo partly drawn) [I 4-MeS(O) H O H --(CH2)3 OH, 17α-(3-Hydroxypropyl)-11β-[4-(methylsulfinyl)phenyl]-17β-nitroestra-4,9-dien-3-one] | 23 | < 2 | > 10 | 
